Reference: ChEMBL document CHEMBL1781971, “Discovery of 5-(arenethynyl) hetero-monocyclic derivatives as potent inhibitors of BCR-ABL including the T315I gatekeeper mutant” (Bioorg Med Chem Lett, 2011)

Assays:
[1] = Cmax in rat at 15 mg/kg, po; type: ADME, organism-based; parameters: dose 15 mg/kg, route oral; settings: in vivo
cells [2] = settings: Mus musculus, BaF3
[3] = Half life in rat at 15 mg/kg, po; type: ADME, organism-based; parameters: dose 15 mg/kg, route oral; settings: in vivo
Ephrin type-A receptor 3 = Ephrin type-A receptor 3 (Homo sapiens, UniProt P29320); assay: Inhibition of human EPHA3 using poly[Glu:Tyr] peptide substrate by Hotspot assay
Insulin receptor = Insulin receptor (Homo sapiens, UniProt P06213); assay: Inhibition of human IR using poly[Glu:Tyr] by Hotspot assay
Sequence of Insulin receptor (P06213 28-758 limits assumed): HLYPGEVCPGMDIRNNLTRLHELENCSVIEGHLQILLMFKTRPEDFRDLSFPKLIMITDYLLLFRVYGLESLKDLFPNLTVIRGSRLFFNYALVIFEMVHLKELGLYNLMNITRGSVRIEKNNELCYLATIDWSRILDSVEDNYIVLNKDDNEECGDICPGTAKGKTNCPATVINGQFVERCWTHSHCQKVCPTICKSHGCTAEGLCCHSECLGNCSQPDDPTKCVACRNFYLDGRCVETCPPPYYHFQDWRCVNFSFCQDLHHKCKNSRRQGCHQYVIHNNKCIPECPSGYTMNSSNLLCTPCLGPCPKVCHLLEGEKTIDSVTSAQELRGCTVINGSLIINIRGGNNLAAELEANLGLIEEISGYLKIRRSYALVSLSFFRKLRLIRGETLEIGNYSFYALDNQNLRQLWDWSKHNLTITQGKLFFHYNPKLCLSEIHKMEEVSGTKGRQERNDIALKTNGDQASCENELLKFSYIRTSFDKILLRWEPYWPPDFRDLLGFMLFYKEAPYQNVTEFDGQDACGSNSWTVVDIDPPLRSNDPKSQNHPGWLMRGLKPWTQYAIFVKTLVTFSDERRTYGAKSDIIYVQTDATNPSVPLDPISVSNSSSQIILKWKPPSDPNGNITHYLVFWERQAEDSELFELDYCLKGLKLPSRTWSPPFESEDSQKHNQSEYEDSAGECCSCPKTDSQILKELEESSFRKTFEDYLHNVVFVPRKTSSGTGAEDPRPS
Sequence of Insulin receptor (P06213 763-1382 limits assumed): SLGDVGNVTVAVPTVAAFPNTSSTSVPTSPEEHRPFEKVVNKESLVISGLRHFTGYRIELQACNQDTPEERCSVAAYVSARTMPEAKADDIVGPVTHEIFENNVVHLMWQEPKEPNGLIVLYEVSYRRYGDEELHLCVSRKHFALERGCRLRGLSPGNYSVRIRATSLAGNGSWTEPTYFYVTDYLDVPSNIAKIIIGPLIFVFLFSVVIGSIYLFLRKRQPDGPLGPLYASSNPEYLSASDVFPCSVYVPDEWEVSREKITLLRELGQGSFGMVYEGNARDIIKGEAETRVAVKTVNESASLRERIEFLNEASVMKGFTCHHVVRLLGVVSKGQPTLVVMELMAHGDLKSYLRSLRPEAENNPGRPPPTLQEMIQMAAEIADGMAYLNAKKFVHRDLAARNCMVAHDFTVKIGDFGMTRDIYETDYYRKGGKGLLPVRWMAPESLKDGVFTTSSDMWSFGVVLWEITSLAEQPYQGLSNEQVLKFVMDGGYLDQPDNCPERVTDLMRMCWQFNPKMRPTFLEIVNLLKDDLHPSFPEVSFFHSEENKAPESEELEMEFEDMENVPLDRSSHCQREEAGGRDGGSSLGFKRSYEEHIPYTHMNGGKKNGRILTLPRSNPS

[4] = Cmax in rat at 5 mg/kg, iv; type: ADME, organism-based; parameters: dose 5 mg/kg, route intravenous; settings: in vivo
[5] = target: Serine/threonine-protein kinase B-raf (Homo sapiens, UniProt P15056); assay: Inhibition of human BRAF using MEK1 (K97R), ATP substrate by Hotspot assay
Rattus norvegicus [6] = assay: AUC in rat at 5 mg/kg, iv; type: ADME, organism-based, Plasma; parameters: dose 5 mg/kg, route intravenous; settings: in vivo
[7] = target: Fibroblast growth factor receptor 4 (Homo sapiens, UniProt P22455); assay: Inhibition of human FGFR4 using poly[Glu:Tyr] peptide substrate by Hotspot assay
cells [8] = settings: Mus musculus, BaF3; remark: listed apart in the source
Description: Antiproliferative activity against BCR-ABL-negative parental mouse BA/F3 cells

[9] = target: Tyrosine-protein kinase JAK1 (Homo sapiens, UniProt P23458); assay: Inhibition of human JAK1 using poly[Glu:Tyr] by Hotspot assay
Sequence of Tyrosine-protein kinase JAK1 (P23458 whole entry): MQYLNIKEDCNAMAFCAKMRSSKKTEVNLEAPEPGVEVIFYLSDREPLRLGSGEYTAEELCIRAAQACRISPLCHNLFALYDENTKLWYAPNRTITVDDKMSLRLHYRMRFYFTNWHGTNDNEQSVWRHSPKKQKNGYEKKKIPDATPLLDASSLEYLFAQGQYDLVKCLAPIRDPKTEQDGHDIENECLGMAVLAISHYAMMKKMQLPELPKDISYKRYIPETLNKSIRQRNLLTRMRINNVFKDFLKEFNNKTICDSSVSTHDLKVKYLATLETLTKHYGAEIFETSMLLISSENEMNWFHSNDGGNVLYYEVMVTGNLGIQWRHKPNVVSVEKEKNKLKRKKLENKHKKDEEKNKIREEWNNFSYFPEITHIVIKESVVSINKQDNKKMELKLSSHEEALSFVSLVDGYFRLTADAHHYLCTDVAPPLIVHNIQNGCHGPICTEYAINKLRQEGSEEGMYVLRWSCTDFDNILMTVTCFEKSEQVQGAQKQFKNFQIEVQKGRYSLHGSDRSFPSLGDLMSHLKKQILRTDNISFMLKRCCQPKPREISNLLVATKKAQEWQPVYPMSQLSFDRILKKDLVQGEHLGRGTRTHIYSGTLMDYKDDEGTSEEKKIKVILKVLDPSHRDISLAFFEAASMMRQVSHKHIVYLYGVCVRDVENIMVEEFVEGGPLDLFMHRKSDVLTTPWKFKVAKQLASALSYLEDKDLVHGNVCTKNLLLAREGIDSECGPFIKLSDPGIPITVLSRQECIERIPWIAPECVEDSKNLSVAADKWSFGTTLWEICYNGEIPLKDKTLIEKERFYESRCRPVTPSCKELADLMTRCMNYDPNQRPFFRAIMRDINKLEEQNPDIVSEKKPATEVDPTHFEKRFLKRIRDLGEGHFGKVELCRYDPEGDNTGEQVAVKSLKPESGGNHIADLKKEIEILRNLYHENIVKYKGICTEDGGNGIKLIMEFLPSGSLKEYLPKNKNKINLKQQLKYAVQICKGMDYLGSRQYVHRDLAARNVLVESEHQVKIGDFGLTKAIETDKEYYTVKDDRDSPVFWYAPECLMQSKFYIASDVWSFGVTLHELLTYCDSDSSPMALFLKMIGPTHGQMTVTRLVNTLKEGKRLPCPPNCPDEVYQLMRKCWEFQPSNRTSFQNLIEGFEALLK

Aurora kinase A = Aurora kinase A (Homo sapiens, UniProt O14965); assay: Inhibition of human Aurora A using H-LRRASLG peptide substrate by Hotspot assay
[10] = target: Proto-oncogene tyrosine-protein kinase Src (Homo sapiens, UniProt P12931); assay: Inhibition of human Src using poly[Glu:Tyr] by Hotspot assay
Sequence of Proto-oncogene tyrosine-protein kinase Src (P12931 2-536 limits assumed): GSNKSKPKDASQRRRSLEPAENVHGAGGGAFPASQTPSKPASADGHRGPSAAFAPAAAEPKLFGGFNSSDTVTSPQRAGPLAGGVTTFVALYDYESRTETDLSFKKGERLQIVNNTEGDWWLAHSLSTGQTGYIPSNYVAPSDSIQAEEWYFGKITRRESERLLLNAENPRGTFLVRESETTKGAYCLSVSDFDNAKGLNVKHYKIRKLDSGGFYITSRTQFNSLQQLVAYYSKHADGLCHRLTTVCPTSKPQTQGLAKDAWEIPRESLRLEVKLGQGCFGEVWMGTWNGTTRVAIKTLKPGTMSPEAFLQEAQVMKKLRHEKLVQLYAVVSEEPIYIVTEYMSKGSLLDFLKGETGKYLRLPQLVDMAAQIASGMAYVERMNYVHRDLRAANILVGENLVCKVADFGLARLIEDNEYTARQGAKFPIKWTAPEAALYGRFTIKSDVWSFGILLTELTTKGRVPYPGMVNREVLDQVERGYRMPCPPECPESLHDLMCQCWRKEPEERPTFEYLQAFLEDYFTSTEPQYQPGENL

[11] = target: Vascular endothelial growth factor receptor 1 (Homo sapiens, UniProt P17948); assay: Inhibition of human VEGFR1 using poly[Glu:Tyr] by Hotspot assay
[12] = target: Cyclin-dependent kinase 2/cyclin E1 (Homo sapiens, UniProt P24941); assay: Inhibition of human CDK2/Cyclin E using Histone H1 substrate by Hotspot assay; type: protein-complex assay
[13] = target: Macrophage colony-stimulating factor 1 receptor (Homo sapiens, UniProt P07333); assay: Inhibition of human FMS using poly[Glu:Tyr] by Hotspot assay
Sequence of Macrophage colony-stimulating factor 1 receptor (P07333 whole entry, looked up): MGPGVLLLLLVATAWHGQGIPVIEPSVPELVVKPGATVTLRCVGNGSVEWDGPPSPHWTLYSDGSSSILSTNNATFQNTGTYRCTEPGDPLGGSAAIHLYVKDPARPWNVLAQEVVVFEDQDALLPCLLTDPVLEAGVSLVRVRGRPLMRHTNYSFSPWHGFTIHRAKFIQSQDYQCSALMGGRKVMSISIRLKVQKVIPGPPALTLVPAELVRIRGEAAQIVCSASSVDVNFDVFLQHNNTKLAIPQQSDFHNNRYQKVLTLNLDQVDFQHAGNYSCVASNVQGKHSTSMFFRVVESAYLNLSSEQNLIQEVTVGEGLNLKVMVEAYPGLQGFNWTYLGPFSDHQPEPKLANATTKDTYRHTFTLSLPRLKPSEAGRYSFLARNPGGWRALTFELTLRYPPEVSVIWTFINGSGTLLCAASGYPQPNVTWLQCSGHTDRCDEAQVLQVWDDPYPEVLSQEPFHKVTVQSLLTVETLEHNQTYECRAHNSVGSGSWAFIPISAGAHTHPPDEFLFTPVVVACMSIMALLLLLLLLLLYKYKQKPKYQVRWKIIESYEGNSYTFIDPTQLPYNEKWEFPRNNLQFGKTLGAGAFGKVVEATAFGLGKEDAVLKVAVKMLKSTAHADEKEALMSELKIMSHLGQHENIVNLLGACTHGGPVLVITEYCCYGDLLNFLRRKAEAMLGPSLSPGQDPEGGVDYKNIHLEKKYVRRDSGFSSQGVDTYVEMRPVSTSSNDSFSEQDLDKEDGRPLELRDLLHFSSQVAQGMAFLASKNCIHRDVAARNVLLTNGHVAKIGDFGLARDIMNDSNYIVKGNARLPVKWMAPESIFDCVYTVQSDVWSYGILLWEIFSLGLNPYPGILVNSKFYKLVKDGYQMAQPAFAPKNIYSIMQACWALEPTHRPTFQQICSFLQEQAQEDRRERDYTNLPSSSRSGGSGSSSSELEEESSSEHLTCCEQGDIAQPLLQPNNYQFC

[14] = Clearance in rat at 5 mg/kg, iv; type: ADME, organism-based; parameters: dose 5 mg/kg, route intravenous; settings: in vivo
[15] = target: Mast/stem cell growth factor receptor Kit (Homo sapiens, UniProt P10721); assay: Inhibition of human c-Kit using poly[Glu:Tyr] by Hotspot assay
[16] = Volume of distribution in rat at 5 mg/kg, iv; type: ADME, organism-based; parameters: dose 5 mg/kg, route intravenous; settings: in vivo
[17] = target: Hepatocyte growth factor receptor (Homo sapiens, UniProt P08581); assay: Inhibition of human c-Met using KKKSPGEYVNIEFG peptide substrate by Hotspot assay
[18] = target: Tyrosine-protein kinase JAK2 (Homo sapiens, UniProt O60674); assay: Inhibition of human JAK2 using poly[Glu:Tyr] by Hotspot assay
[19] = target: Fibroblast growth factor receptor 1 (Homo sapiens, UniProt P11362); assay: Inhibition of human FGFR1 using KKKSPGEYVNIEFG peptide substrate by Hotspot assay
[20] = Half life in rat at 5 mg/kg, iv; type: ADME, organism-based; parameters: dose 5 mg/kg, route intravenous; settings: in vivo
[21] = Antitumor activity against mouse BA/F3 cells expressing ABL T315I mutant xenografted in mouse assessed as increase in overall survival at 30 mg/kg, po QD for 19 days relative to control; type: functional, BaF3
[22] = target: Receptor-type tyrosine-protein kinase FLT3 (Homo sapiens, UniProt P36888)
[23] = Oral bioavailability in rat at 15 mg/kg; type: ADME, organism-based; settings: in vivo
[24] = Plasma concentration in mouse after 6 hrs at 30 mg/kg, po; type: ADME, organism-based; parameters: dose 30 mg/kg, route oral
Ephrin type-A receptor 2 = Ephrin type-A receptor 2 (Homo sapiens, UniProt P29317); assay: Inhibition of human EPHA2 using poly[Glu:Tyr] peptide substrate by Hotspot assay
cells [25] = settings: Mus musculus, BaF3; remark: listed apart in the source
Description: Antiproliferative activity against mouse BA/F3 cells expressing wild type BCR-ABL

[26] = target: Tyrosine-protein kinase Lyn (Homo sapiens, UniProt P07948); assay: Inhibition of human LYN using poly[Glu:Tyr] by Hotspot assay
[27] = target: Tyrosine-protein kinase JAK3 (Homo sapiens, UniProt P52333); assay: Inhibition of human JAK3 using GEEEEYFELVKKKK peptide substrate by Hotspot assay
Ephrin type-A receptor 7 = Ephrin type-A receptor 7 (Homo sapiens, UniProt Q15375); assay: Inhibition of human EPHA7 using poly[Glu:Tyr] peptide substrate by Hotspot assay
[28] = target: Fibroblast growth factor receptor 3 (Homo sapiens, UniProt P22607); assay: Inhibition of human FGFR3 using poly[Glu:Tyr] peptide substrate by Hotspot assay
Sequence of Fibroblast growth factor receptor 3 (P22607 whole entry): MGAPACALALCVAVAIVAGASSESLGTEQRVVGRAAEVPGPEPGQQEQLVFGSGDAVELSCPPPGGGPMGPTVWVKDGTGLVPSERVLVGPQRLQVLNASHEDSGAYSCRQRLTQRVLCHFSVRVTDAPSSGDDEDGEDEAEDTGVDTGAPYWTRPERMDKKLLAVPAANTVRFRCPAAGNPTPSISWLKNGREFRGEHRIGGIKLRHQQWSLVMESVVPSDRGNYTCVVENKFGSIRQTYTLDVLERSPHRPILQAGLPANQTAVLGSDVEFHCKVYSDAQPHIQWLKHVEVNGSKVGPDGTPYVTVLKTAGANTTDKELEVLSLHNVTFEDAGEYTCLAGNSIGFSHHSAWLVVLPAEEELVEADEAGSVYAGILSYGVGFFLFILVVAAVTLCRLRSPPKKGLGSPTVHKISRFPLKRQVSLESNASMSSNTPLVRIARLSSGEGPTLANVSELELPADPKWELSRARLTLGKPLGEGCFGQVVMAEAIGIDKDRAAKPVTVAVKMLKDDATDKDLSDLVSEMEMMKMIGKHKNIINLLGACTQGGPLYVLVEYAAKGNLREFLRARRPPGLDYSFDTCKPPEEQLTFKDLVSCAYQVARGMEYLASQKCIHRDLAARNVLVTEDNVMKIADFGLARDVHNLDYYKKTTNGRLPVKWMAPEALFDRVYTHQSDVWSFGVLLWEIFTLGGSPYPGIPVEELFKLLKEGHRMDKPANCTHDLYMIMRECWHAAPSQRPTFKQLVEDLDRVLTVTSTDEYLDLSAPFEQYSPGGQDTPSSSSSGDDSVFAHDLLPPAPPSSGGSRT

Rattus norvegicus [29] = assay: AUC in rat at 15 mg/kg, po; type: ADME, organism-based, Plasma; parameters: dose 15 mg/kg, route oral; settings: in vivo
[30] = target: Vascular endothelial growth factor receptor 2 (Homo sapiens, UniProt P35968); assay: Inhibition of human VEGFR2 using poly[Glu:Tyr] by Hotspot assay
[31] = target: Serine/threonine-protein kinase B-raf (Homo sapiens, UniProt P15056, V600E); assay: Inhibition of human BRAF V599E mutant using MEK1 (K97R), ATP substrate by Hotspot assay
[32] = target: Fibroblast growth factor receptor 2 (Homo sapiens, UniProt P21802); assay: Inhibition of human FGFR2 using poly[Glu:Tyr] peptide substrate by Hotspot assay
[33] = target: Platelet-derived growth factor receptor alpha (Homo sapiens, UniProt P16234); assay: Inhibition of human PDGFRalpha using poly[Glu:Tyr] by Hotspot assay
Angiopoietin-1 receptor = Angiopoietin-1 receptor (Homo sapiens, UniProt Q02763); assay: Inhibition of human Tie2/TEK using poly[Glu:Tyr] by Hotspot assay

CNC(=O)c1ncc(C#Cc2cc(C(=O)Nc3ccc(CN4CCN(CCO)CC4)c(C(F)(F)F)c3)ccc2C)n1C showed a Cmax [1] of 344 ng/mL, an IC50 (cells [2]) of 8.4 nM and a half-life [3] of 10 h. The IC50 (Ephrin type-A receptor 3) was 1.2 nM, the IC50 (Insulin receptor) was greater than 3000 nM and the Cmax [4] was 200 ng/mL. It also gave an IC50 [5] of 20 nM, an AUC (Rattus norvegicus [6]) of 970 h/ng/mL and an IC50 [7] of 34 nM. The IC50 (cells [8]) was 3090 nM, the IC50 [9] was 55.3 nM and the IC50 (Aurora kinase A) was greater than 3000 nM. The IC50 [10] was 4 nM, the IC50 [11] was 5.2 nM and the IC50 [12] was 6.4 nM. The IC50 [13] was 7.2 nM, the clearance [14] was 17.2 mL/min/kg and the IC50 [15] was greater than 3000 nM. For the same molecule, the Vd [16] was 8.2 L/kg, the IC50 [17] was greater than 3000 nM and the IC50 [18] was 536 nM. The IC50 [19] was 1.8 nM, the half-life [20] was 5.6 h and the Activity [21] was 130%. It also gave an IC50 [22] of 2 nM, a bioavailability [23] of 45% and a concentration at 6 h [24] of 1150 ng/mL. The IC50 (Ephrin type-A receptor 2) was 0.6 nM, the IC50 (cells [25]) was 1.3 nM and the IC50 [26] was less than 0.15 nM. It also gave an IC50 [27] of 57.5 nM, an IC50 (Ephrin type-A receptor 7) of 4.2 nM and an IC50 [28] of 10.5 nM. It also gave an AUC (Rattus norvegicus [29]) of 6586 h/ng/mL, an IC50 [30] of 2.3 nM and an IC50 [31] of 26 nM. For the same molecule, the IC50 [32] was 1.5 nM, the IC50 [33] was 1.3 nM and the IC50 (Angiopoietin-1 receptor) was 2.2 nM.
